Reference: ChEMBL document CHEMBL1201862, “PubChem BioAssay data set” (2004)
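Tested at 5 concentrations; 48 h exposure; 96-well plates; endpoints linearly interpolated, else capped at highest concentration. Abbreviation: GI50, concentration required for 50% inhibition of growth.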 Active and inactive are the calls of the source. Rule as the data show it: active = GI50 up to about 1.1 µM and inactive = higher.

Experiments:
Test in all cases: NCI tumour cell line growth inhibition, 48 h
NCI-H23 = system: NCI-H23
NCI/ADR-RES = system: NCI/ADR-RES
HT-29 = system: HT-29
U-251 = system: U-251
LOX IMVI = system: LOX IMVI
786-0 = system: 786-0
RPMI-8226 = system: RPMI-8226
PC-3 = system: PC-3
HCT-116 = system: HCT-116
UACC-257 = system: UACC-257
MDA-MB-231 = system: MDA-MB-231
OVCAR-8 = system: OVCAR-8
Malme-3M = system: Malme-3M
MDA-N = system: MDA-N
OVCAR-3 = system: OVCAR-3
SN12C = system: SN12C
ACHN = system: ACHN
CCRF-CEM = system: CCRF-CEM
M14 = system: M14
SK-OV-3 = system: SK-OV-3

Measured: GI50

CC1(C)NC2C(=O)c3c([nH]c4ccccc34)[C@]3(C)CCC1CC23 (stereo partly specified)
inactive: NCI-H23 > 100 µM | NCI/ADR-RES > 100 µM | HT-29 94.8 µM | U-251 > 100 µM | LOX IMVI > 100 µM | 786-0 > 100 µM | RPMI-8226 82.8 µM | PC-3 > 100 µM | HCT-116 > 100 µM | UACC-257 > 100 µM | MDA-MB-231 > 100 µM | OVCAR-8 > 100 µM | Malme-3M > 100 µM | MDA-N > 100 µM | OVCAR-3 > 100 µM | SN12C > 100 µM | ACHN > 100 µM | CCRF-CEM > 100 µM

COc1ccc(C2C(C#N)=C(S)N(C3OC(COC(C)=O)C(OC(C)=O)C(OC(C)=O)C3OC(C)=O)C(c3ccccc3)=C2C(C)=O)cc1 (stereo unspecified)
inactive: NCI-H23 > 100 µM | NCI/ADR-RES > 100 µM | HT-29 > 100 µM | U-251 > 100 µM | LOX IMVI > 100 µM | 786-0 > 100 µM | RPMI-8226 92 µM | PC-3 > 100 µM | HCT-116 > 100 µM | UACC-257 > 100 µM | MDA-MB-231 > 100 µM | OVCAR-8 > 100 µM | Malme-3M > 100 µM | MDA-N 58.5 µM | OVCAR-3 > 100 µM | M14 > 100 µM | SN12C > 100 µM | ACHN > 100 µM | CCRF-CEM > 100 µM

CC(C)n1c2c(c3ccccc3c1=O)C(=O)c1ccccc1-2
inactive: NCI-H23 > 100 µM | NCI/ADR-RES > 100 µM | HT-29 > 100 µM | U-251 > 100 µM | LOX IMVI > 100 µM | 786-0 > 100 µM | RPMI-8226 > 100 µM | PC-3 > 100 µM | SK-OV-3 > 100 µM | HCT-116 > 100 µM | UACC-257 > 100 µM | MDA-MB-231 > 100 µM | OVCAR-8 > 100 µM | Malme-3M > 100 µM | MDA-N > 100 µM | OVCAR-3 > 100 µM | M14 > 100 µM | SN12C > 100 µM | CCRF-CEM > 100 µM

Cc1c(C)c(C)c(Cn2[nH]c(=O)n(C)c2=O)c(C)c1C
inactive: NCI-H23 > 100 µM | NCI/ADR-RES > 100 µM | HT-29 > 100 µM | U-251 > 100 µM | LOX IMVI > 100 µM | 786-0 > 100 µM | RPMI-8226 > 100 µM | PC-3 > 100 µM | SK-OV-3 > 100 µM | HCT-116 > 100 µM | UACC-257 > 100 µM | MDA-MB-231 > 100 µM | OVCAR-8 > 100 µM | Malme-3M > 100 µM | MDA-N > 100 µM | M14 > 100 µM | SN12C > 100 µM | ACHN > 100 µM | CCRF-CEM > 100 µM

CO[C@@H]1C[C@H]2[C@@H]3CC[C@H]([C@@H](C)COC(C)=O)[C@@]3(C)CC[C@@H]2[C@@]2(C)CC[C@H]3C[C@]312
inactive: NCI-H23 12.8 µM | NCI/ADR-RES 14.1 µM | HT-29 6.92 µM | U-251 13.1 µM | LOX IMVI 11.4 µM | 786-0 16.5 µM | RPMI-8226 8.67 µM | PC-3 15.2 µM | HCT-116 10.2 µM | UACC-257 11.6 µM | MDA-MB-231 11.9 µM | OVCAR-8 12.2 µM | Malme-3M 16 µM | MDA-N 16.9 µM | OVCAR-3 14.6 µM | M14 16.9 µM | SN12C 16.5 µM | ACHN 16.6 µM | CCRF-CEM 14.9 µM

COc1ccc2cc(CNCCCCCCCCNCc3ccc4cc(OC)ccc4c3)ccc2c1
inactive: NCI-H23 13.8 µM | NCI/ADR-RES 6.65 µM | HT-29 2 µM | U-251 3.66 µM | LOX IMVI 3.94 µM | 786-0 5.36 µM | RPMI-8226 1.48 µM | PC-3 1.45 µM | HCT-116 4.42 µM | UACC-257 6.76 µM | MDA-MB-231 13.7 µM | OVCAR-8 6.61 µM | Malme-3M 6.85 µM | MDA-N 7.74 µM | OVCAR-3 6.61 µM | M14 1.86 µM | ACHN 5.94 µM | CCRF-CEM 2.54 µM

C[C@]12CC[C@@H]3c4ccc(O)cc4CC[C@H]3[C@@H]1C/C(=C\c1ccncc1)[C@@H]2O
inactive: NCI-H23 3.1 µM | NCI/ADR-RES 5.56 µM | HT-29 15.1 µM | U-251 11.8 µM | 786-0 14.3 µM | RPMI-8226 3.13 µM | PC-3 10.4 µM | SK-OV-3 26.2 µM | HCT-116 10.9 µM | UACC-257 14.5 µM | MDA-MB-231 10.1 µM | OVCAR-8 11.4 µM | Malme-3M 5.04 µM | MDA-N 3.99 µM | OVCAR-3 11.5 µM | M14 20.6 µM | SN12C 26.9 µM | ACHN 11.2 µM | CCRF-CEM 9.75 µM
